Measured values taken from patent EP2578218A1, “Antiviral efficacy of disodium 2,6-dimethyl-1,4-dihydropyridine-3,5-bis(carbonyloxyacetate) and its derivatives” (Grindeks, A Joint Stock Company, priority 2011, dated 2013).

Test system: influenza virus (H3N2)
Test: antiviral efficacy on MDCK cell line in vitro
Assay type: cell-based
Settings: MDCK cells infected with influenza virus (H3N2); test compound present from 1 hour after viral infection until end of culture; over a wide concentration range (FIG.3-5)
Method: For influenza virus, MDCK cells that were permissive of viral replication were grown up to sufficient numbers in growth media with supplements. Once MDCK cells were confluent they were seeded into 96 well flat-bottomed plates (2x10^4 cells/well), incubated overnight and then infected with the influenza virus (H3N2) at the correct concentration and incubated in order to allow productive infection of the MDCK cells.
After the initial seeding of cells overnight (200 µl/well), the medium was removed and influenza viral infection performed in a smaller volume (25µl/well) for 1 hour. After the 1 hour infection, the viral inoculum was removed and replaced with medium (200p1/well) containing test compound. Thus, disodium 2,6-dimethyl-1,4-dihydropyridine-3,5-bis(carbonyloxyacetate) and its derivatives - disodium 2,4,6-trimethyl-1,4-dihydropyridine-3,5-bis-carbonyloxyacetate and disodium 4-ethyl-2,6-dimethyl-1,4-dihydropyridine-3,5-bis(carbonyloxyacetate) (compounds with general formula I), were presented from 1 hour after viral infection until the end of the culture period.
The antiviral efficacy of disodium 2,6-dimethyl-1,4-dihydropyridine-3,5-bis(carbonyloxyacetate) and its derivatives - disodium 2,4,6-trimethyl-1,4-dihydropyridine-3,5-bis(carbonyloxyacetate) and disodium 4-ethyl-2,6-dimethyl-1,4-dihydropyridine-3,5-bis(carbonyloxyacetate) (compounds with general formula I), were compared with already known medicaments, such as 1-methyl-2-phenylthiomethyl-3-carbethoxy-4-dimethylaminomethyl-5-oxybromoindole monohydrate hydrochloride and Oseltamivir, and results were represented in FIG.1., FIG.2., FIG.3., FIG.4. and FIG.5.

Row | Structure (SMILES) | antiviral efficacy
1 | CC1=C(C(=O)OCC(=O)O)C(C)C(C(=O)OCC(=O)O)=C(C)N1 [disodium 2,4,6-trimethyl-1,4-dihydropyridine-3,5-bis-carbonyloxyacetate] | effective against influenza
2 | CC1=C(C(=O)OCC(=O)O)CC(C(=O)OCC(=O)O)=C(C)N1 [disodium 2,6-dimethyl-1,4-dihydropyridine-3,5-bis(carbonyloxyacetate)] | effective against influenza
3 | CCC1C(C(=O)OCC(=O)O)=C(C)NC(C)=C1C(=O)OCC(=O)O [disodium 4-ethyl-2,6-dimethyl-1,4-dihydropyridine-3,5-bis(carbonyloxyacetate)] | effective against influenza
